Reference: PMC3037272 (Journal of medicinal chemistry, 2010)
One block for each molecule: values may come before it.

How the values were obtained:
[1] = molecular target: T1, 26S proteasome β1 subunit (Oryctolagus cuniculus, UniProt A0A5F9DQW2); format: biochemical, rabbit
T1 sequence (A0A5F9DQW2 1-212): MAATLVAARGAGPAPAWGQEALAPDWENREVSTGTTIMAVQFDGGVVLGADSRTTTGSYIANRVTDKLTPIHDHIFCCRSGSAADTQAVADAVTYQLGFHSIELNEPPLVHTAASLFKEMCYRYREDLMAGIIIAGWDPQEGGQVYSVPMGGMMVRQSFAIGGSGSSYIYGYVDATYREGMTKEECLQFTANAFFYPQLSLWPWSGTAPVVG

[2] = molecular target: T2, 26S proteasome β5 subunit (Oryctolagus cuniculus, UniProt G1T4Q9); format: biochemical, rabbit
T2 sequence (G1T4Q9 1-263): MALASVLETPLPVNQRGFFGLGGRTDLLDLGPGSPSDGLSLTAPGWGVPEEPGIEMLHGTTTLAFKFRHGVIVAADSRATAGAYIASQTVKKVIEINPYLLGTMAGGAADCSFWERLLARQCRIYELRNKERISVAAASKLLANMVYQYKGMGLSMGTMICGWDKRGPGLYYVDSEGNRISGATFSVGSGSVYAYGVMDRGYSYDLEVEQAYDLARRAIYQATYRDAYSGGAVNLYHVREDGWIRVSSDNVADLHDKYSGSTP

[3] = molecular target: T3, 26S proteasome β2 subunit (Oryctolagus cuniculus, UniProt G1SWK8)
T3 sequence (G1SWK8 1-271): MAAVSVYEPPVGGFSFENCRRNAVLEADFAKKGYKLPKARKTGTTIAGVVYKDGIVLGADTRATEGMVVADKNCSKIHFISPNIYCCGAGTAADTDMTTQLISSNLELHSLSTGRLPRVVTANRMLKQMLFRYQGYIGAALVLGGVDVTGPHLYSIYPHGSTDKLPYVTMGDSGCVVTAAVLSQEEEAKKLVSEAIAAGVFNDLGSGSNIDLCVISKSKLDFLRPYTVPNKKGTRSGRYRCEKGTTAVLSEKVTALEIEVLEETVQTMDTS

proteasome β5 subunit = proteasome β5 subunit (Homo sapiens, UniProt P28074); experiment: Competition assay against fluorescent probe MV151; format: binding; details: HEK-293 lysate
proteasome β1 subunit = proteasome β1 subunit (Homo sapiens, UniProt P28072); experiment: Competition assay against fluorescent probe MV151; format: binding; details: HEK-293 lysate, between 100 and 250 nM, competition against 9
proteasome β2 subunit = proteasome β2 subunit (Homo sapiens, UniProt Q99436); experiment: Competition assay against fluorescent probe MV151; details: HEK-293 lysate

SMILES: CC(C)C[C@H](NC(=O)[C@H](Cc1ccccc1)NC(=O)[C@H](Cc1c(F)c(F)c(F)c(F)c1F)NC(=O)[C@H](Cc1ccccc1)N=[N+]=[N-])C(=O)[C@@]1(C)CO1 [5a]
IC50 [1]: > 15000 nM
IC50 [2]: 200 nM
IC50 [3]: > 15000 nM

SMILES: CC(C)C[C@H](NC(=O)[C@H](Cc1cc(C(F)(F)F)cc(C(F)(F)F)c1)NC(=O)c1cnccn1)B1OC2C[C@@H]3C[C@@H](C3(C)C)[C@]2(C)O1 (some centres unmarked) [2b]
IC50 [1]: 160 nM
IC50 [2]: 3 nM
IC50 [3]: 11000 nM

SMILES: CC(C)C[C@H](NC(=O)[C@H](Cc1c(F)c(F)c(F)c(F)c1F)NC(=O)c1cnccn1)B1OC2C[C@@H]3C[C@@H](C3(C)C)[C@]2(C)O1 (some centres unmarked) [2a]
IC50 [1]: 440 nM

SMILES: CC1=CC(C)=[N+]2C1=C(CCCCc1cn([C@@H](Cc3ccccc3)C(=O)N[C@@H](Cc3ccccc3)C(=O)N[C@@H](Cc3c(F)c(F)c(F)c(F)c3F)C(=O)N[C@@H](CC(C)C)C(=O)[C@@]3(C)CO3)nn1)c1c(C)cc(C)n1[B-]2(F)F [compound 7]
IC50 [1]: > 10000 nM
IC50 [2]: 300 nM
concentration at which labeling of the β5 subunit is visible (proteasome β5 subunit; direct fluorescent labeling, read-out at 520 nm): 1 nM
IC50 [3]: > 10000 nM

SMILES: CC(C)C[C@H](NC(=O)[C@H](Cc1c(F)c(F)c(F)c(F)c1F)NC(=O)[C@H](Cc1ccccc1)NC(=O)[C@H](Cc1ccccc1)N=[N+]=[N-])C(=O)[C@@]1(C)CO1 [4a]
IC50 [1]: > 15000 nM
effect on β1 when β5 is saturated (proteasome β1 subunit): unaffected or even upregulated
concentration at which inhibition of β5 is apparent (proteasome β5 subunit; concentration series 1 nM to 1 μM, competition against 9): 5 nM
β2 band in competition assay (proteasome β2 subunit; 1 μM inhibitor, Figure 3): the majority of the corresponding band in Figure 3 is gone
effect on β2 when β5 is saturated (proteasome β2 subunit; between 100 and 250 nM, competition against 9): unaffected or even upregulated

Second part, the molecule after the results:

IC50 [1]: > 15000 nM
SMILES: CC(C)C[C@H](NC(=O)[C@H](Cc1ccccc1)NC(=O)[C@H](Cc1ccccc1)NC(=O)[C@H](Cc1ccccc1)N=[N+]=[N-])C(=O)[C@@]1(C)CO1 [compound 3]

IC50 [1]: > 15000 nM
IC50 [2]: 130 nM
IC50 [3]: > 15000 nM
SMILES: CC(C)C[C@H](NC(=O)[C@H](Cc1ccccc1)NC(=O)[C@H](Cc1cc(C(F)(F)F)cc(C(F)(F)F)c1)NC(=O)[C@H](Cc1ccccc1)N=[N+]=[N-])C(=O)[C@@]1(C)CO1 [5b]

IC50 [1]: > 15000 nM
IC50 [2]: 100 nM
IC50 [3]: > 15000 nM
SMILES: CC(C)C[C@H](NC(=O)[C@H](Cc1cc(C(F)(F)F)cc(C(F)(F)F)c1)NC(=O)[C@H](Cc1ccccc1)NC(=O)[C@H](Cc1ccccc1)N=[N+]=[N-])C(=O)[C@@]1(C)CO1 [4b]
